How the values were obtained:
[1] = target: récepteurs de benzodiazépine; assay: Benzodiazepine receptor binding (FRB), method of GB 2 128 989; details: in vitro benzodiazepine receptor binding; type of value not stated; read-out: FRBnM
Source text: La recherche de la fixation aux récepteurs de benzodiazépine (FRB) est réalisée par le procédé décrit dans GB 2 128 989.

[2] = system: récepteurs de benzodiazépine; assay: In vivo binding to benzodiazepine receptors, method of Goeders and Kuhar, Life Sciences (1985) 37 345
Source text: La mesure de la fixation in vivo aux récepteurs de benzodiazépine est réalisée selon le procédé décrit par Goeders N.E. and Kuhar M J, Life Sciences (1985) 37 345.

Row | Compound | IC50 [1] [nM] | Fixation in vivo DE50 mg/pk ip [2]
1 | CCOC(=O)c1ncn2c1CN(C)C(=O)c1cccc(F)c1-2 [EXEMPLE 1D, 5,6-dihydro-10-fluoro-5-méthyl-6-oxo-4H-imidazo [1,5-a] [1,4] benzodiazépine-3-carboxylate d'éthyle] | 410 | 21 mg/pk
2 | CCOC(=O)c1ncn2c1CN(C)C(=O)c1c(F)c(F)c(F)c(F)c1-2 [EXEMPLE 1G, 5,6-dihydro-5-méthyl-6-oxo-7,8,9,10-tétrafluoro-4H-imidazo [1,5-a] [1,4] benzodiazépine-3-carboxylate d'éthyle] | 7500 | 100 mg/pk
3 | CN1Cc2c(C(=O)C3CC3)ncn2-c2cccc(F)c2C1=O [EXEMPLE 3D, 5,6-dihydro-7-fluoro-5-méthyl-6-oxo-4H-imidazo [1,5-a] [1,4] benzodiazépine-3-yl-cyclopropylméthanone] | 27 | 
4 | O=C1NCc2c(C(=O)C3CC3)ncn2-c2ccccc21 [EXEMPLE 4, 5,6-dihydro-6-oxo-4H-imidazo [1,5-a] [1,4] benzodiazépine-3-yl-cyclopropylméthanone] | 582 | 
5 | CN1Cc2c(C(=O)C3CC3)ncn2-c2cccc(Cl)c2C1=O [EXEMPLE 3B, 7-chloro-5,6-dihydro-5-méthyl-6-oxo-4H-imidazo [1,5-a] [1,4] benzodiazépine-3-yl-cyclopropylméthanone] | 7.7 | 
6 | CCOC(=O)c1ncn2c1CN(C)C(=O)c1c(F)ccc(F)c1-2 [EXEMPLE 1E, 7,10-difluoro-5,6-dihydro-5-méthyl-6-oxo-4H-imidazo [1,5-a] [1,4] benzodiazépine-3-carboxylate d'éthyle] | 174 | 1,1 mg/pk
7 | CCOC(=O)c1ncn2c1CN(C)C(=O)c1cccc(N)c1-2 [EXEMPLE 6, 5,6-dihydro-10-amino-5-méthyl-6-oxo-4H-imidazo [1,5-a] [1,4] benzodiazépine-3-carboxylate d'éthyle] | 966 | 
8 | CN1Cc2c(C(=O)C3CC3)ncn2-c2cccc(C(F)(F)F)c2C1=O [EXEMPLE 3C, 5,6-dihydro-5-méthyl-6-oxo-7-trifluorométhyl-4H-imidazo [1,5-a] [1,4] benzodiazépine-3-yl-cyclopropylméthanone] | 9.4 | 0,05 mg/pk
9 | CCOC(OCC)c1ncn2c1CN(C)C(=O)c1c(Cl)cccc1-2 [EXEMPLE 5, 7-chloro-3-diethoxyméthyl-5,6-dihydro-5-méthyl-4H-imidazo [1,5-a] [1,4] benzodiazépine-6(4H)-one] | 339 | 2,1 mg/pk
